Test results reported in patent publication US20150322051A1, “Macrocyclic picolinamides as fungicides” (Dow AgroSciences LLC, priority 2014, published 2015).
Where two headings read alike, the source gives them in different places.

Legend:
[1] = test system: Mycosphaerella graminicola; anamorph: Septoria tritici (SEPTTR); assay: Leaf blotch of wheat (SEPTTR) whole-plant fungicidal test; type: in vivo; conditions: Zymoseptoria tritici, topical; for pest or weed control at 121.5 g/ha: low volume (track spray) application, 121.5 g/H; for pest or weed control at 100 ppm: high volume application
Description: (§1) All fungicides were evaluated using the aforementioned method for their activity vs. all target diseases, unless stated otherwise. Wheat leaf blotch and brown rust activity were also evaluated using track spray applications, in which case the fungicides were formulated as EC formulations, containing 0.1% Trycol 5941 in the spray solutions. Wheat plants (variety Yuma) were grown from seed in a greenhouse in 50% mineral soil/50% soil-less Metro mix until the first leaf was fully emerged, with 7-10 seedlings per pot. These plants were inoculated with an aqueous spore suspension of Septoria tritici either prior to or after fungicide treatments. After inoculation the plants were kept in 100% relative humidity (one day in a dark dew chamber followed by two to three days in a lighted dew chamber at 20° C.) to permit spores to germinate and infect the leaf. The plants were then transferred to a greenhouse set at 20° C. for disease to develop. When disease symptoms were fully expressed on the 1st leaves of untreated plants, infection levels were assessed on a scale of 0 to 100 percent disease severity. Percent disease control was calculated using the ratio of disease severity on treated plants relative to untreated plants.

[2] = test system: Puccinia triticina; synonym: Puccinia recondita f. sp. tritici (PUCCRT); assay: Wheat brown rust (PUCCRT) whole-plant fungicidal test; type: in vivo; conditions: topical; for pest or weed control at 121.5 g/ha: low volume (track spray) application, 121.5 g/H; for pest or weed control at 100 ppm: high volume application
Description: as §1, with “plants. Wheat plants (variety Yuma) were grown from seed in a greenhouse in 50% mineral soil/50% soil-less Metro mix until the first leaf was fully emerged, with 7-10 seedlings per pot. These plants were inoculated with an aqueous spore suspension of Puccinia triticina either prior to or after fungicide treatments. […] The plants were then transferred to a greenhouse set at 24° C. for disease to develop. Fungicide formulation, application and disease assessment followed the procedures as described in the Example A.” for “plants.”

[3] = 24 h, 1 Day Protectant, read-out: Low Volume activity at 121.5 g/H SEPTTR 1DP (% disease control rating)
[4] = 72 h, 3 Day Curative, read-out: Low Volume activity at 121.5 g/H SEPTTR 3DC (% disease control rating)
[5] = 24 h, 1 Day Protectant, read-out: Low Volume activity at 121.5 g/H PUCCRT 1DP (% disease control rating)
[6] = 72 h, 3 Day Curative, read-out: Low Volume activity at 121.5 g/H PUCCRT 3DC (% disease control rating)
[7] = 24 h, 1 Day Protectant, read-out: High Volume activity at 100 ppm SEPTTR 1DP (% disease control rating)
[8] = 72 h, 3 Day Curative, read-out: High Volume activity at 100 ppm SEPTTR 3DC (% disease control rating)
[9] = 24 h, 1 Day Protectant, read-out: High Volume activity at 100 ppm PUCCRT 1DP (% disease control rating)
[10] = 72 h, 3 Day Curative, read-out: High Volume activity at 100 ppm PUCCRT 3DC (% disease control rating)

SMILES | pest or weed control at 121.5 g/ha [1, 3] [%] | pest or weed control at 121.5 g/ha [1, 4] [%] | pest or weed control at 121.5 g/ha [2, 5] [%] | pest or weed control at 121.5 g/ha [2, 6] [%] | pest or weed control at 100 ppm [1, 7] [%] | pest or weed control at 100 ppm [1, 8] [%] | pest or weed control at 100 ppm [2, 9] [%] | pest or weed control at 100 ppm [2, 10] [%]
COc1ccnc(C(=O)N[C@H]2CCC[C@H](Cc3ccccc3)[C@@H](Cc3ccccc3)[C@H](C)OC2=O)c1OCOC(C)=O [Compound 6] | > 70 | > 70 | > 70 | > 70 | – | – | – | –
COc1ccnc(C(=O)N[C@H]2CCC[C@H](Cc3ccccc3)[C@@H](CCc3ccccc3)[C@H](C)OC2=O)c1OCOC(=O)C(C)C [Compound 17] | > 70 | > 70 | > 70 | < 70 | – | – | – | –
COc1ccnc(C(=O)N[C@H]2CCC[C@H](Cc3ccc(Cl)cc3)[C@@H](C3CCCC3)[C@H](C)OC2=O)c1OC(C)=O [Compound 28] | > 70 | > 70 | > 70 | < 70 | – | – | – | –
CCOCC(=O)OCOc1c(OC)ccnc1C(=O)N[C@H]1CCC[C@H](Cc2ccccc2)[C@@H](CCC(C)C)[C@H](C)OC1=O [Compound 51] | > 70 | > 70 | > 70 | < 70 | – | – | – | –
CCOCC(=O)OCOc1c(OC)ccnc1C(=O)N[C@H]1CCC[C@H](Cc2ccccc2)[C@@H](Cc2ccccc2)[C@H](C)OC1=O [Compound 8, ((2-(((3S,7R,8R,9S)-7,8-dibenzyl-9-methyl-2-oxooxonan-3-yl)carbamoyl)-4-methoxypyridin-3-yl)oxy)methyl 2-ethoxyacetate] | > 70 | > 70 | > 70 | < 70 | – | – | – | –
COc1ccnc(C(=O)N[C@H]2CCC[C@H](CC3CC3)[C@@H](Cc3ccccc3)[C@H](C)OC2=O)c1OC(C)=O [Compound 60] | > 70 | > 70 | > 70 | > 70 | – | – | – | –
COc1ccnc(C(=O)N[C@H]2CCC[C@H](Cc3ccc(Cl)cc3)[C@@H](Cc3ccccc3)[C@H](C)OC2=O)c1OC(C)=O [Compound 21] | > 70 | < 70 | > 70 | < 70 | – | – | – | –
COc1ccnc(C(=O)N[C@H]2CCC[C@H](CC3CC3)[C@@H](Cc3ccccc3)[C@H](C)OC2=O)c1O [Compound 94] | > 70 | > 70 | > 70 | < 70 | – | – | – | –
COc1ccnc(C(=O)N[C@H]2CCC[C@H](Cc3ccc(C(F)(F)F)cc3)[C@@H](CC(C)C)[C@H](C)OC2=O)c1OC(C)=O [Compound 22] | > 70 | < 70 | > 70 | < 70 | – | – | – | –
COc1ccnc(C(=O)N[C@H]2CCC[C@H](Cc3ccccc3)[C@@H](Cc3ccc(OC(F)(F)F)cc3)[C@H](C)OC2=O)c1OCOC(C)=O [Compound 68] | < 70 | < 70 | < 70 | < 70 | – | – | – | –
COc1ccnc(C(=O)N[C@H]2CCC[C@H](Cc3ccccc3)[C@@H](C3CCCC3)[C@H](C)OC2=O)c1OCOC(C)=O [Compound 10] | > 70 | > 70 | > 70 | > 70 | – | – | – | –
COc1ccnc(C(=O)N[C@H]2CCC[C@H](Cc3ccc(C(F)(F)F)cc3)[C@@H](CC(C)C)[C@H](C)OC2=O)c1OCOC(C)=O [Compound 23] | > 70 | < 70 | > 70 | < 70 | – | – | – | –
COc1ccnc(C(=O)N[C@H]2CCC[C@H](Cc3ccc(Cl)cc3)[C@@H](CC(C)C)[C@H](C)OC2=O)c1OC(C)=O [Compound 13] | > 70 | > 70 | > 70 | < 70 | – | – | – | –
COc1ccnc(C(=O)N[C@H]2CCC[C@H](Cc3ccc(C(F)(F)F)cc3)[C@@H](Cc3ccccc3)[C@H](C)OC2=O)c1OCOC(C)=O [Compound 26] | > 70 | < 70 | > 70 | < 70 | – | – | – | –
COc1ccnc(C(=O)N[C@H]2CCC[C@H](Cc3ccc(C(F)(F)F)cc3)[C@@H](Cc3ccccc3)[C@H](C)OC2=O)c1OC(C)=O [Compound 25] | < 70 | < 70 | < 70 | < 70 | – | – | – | –
COc1ccnc(C(=O)N[C@H]2CCC[C@H](CCCc3ccccc3)[C@@H](Cc3ccccc3)[C@H](C)OC2=O)c1O [Compound 98] | – | – | – | – | > 70 | > 70 | > 70 | < 70
CCC[C@H]1CCC[C@H](NC(=O)c2nccc(OC)c2OC(C)=O)C(=O)O[C@@H](C)[C@@H]1c1ccccc1 [Compound 55] | > 70 | > 70 | > 70 | > 70 | – | – | – | –
COc1ccnc(C(=O)N[C@H]2CCC[C@H](CCC(C)C)[C@@H](C3CCCC3)[C@H](C)OC2=O)c1OCOC(C)=O [Compound 42] | > 70 | > 70 | > 70 | < 70 | – | – | – | –
CCCC[C@@H]1[C@@H](Cc2ccccc2)CCC[C@H](NC(=O)c2nccc(OC)c2OC(C)=O)C(=O)O[C@H]1C [Compound 1, 2-(((3S,7R,8R,9S)-7-benzyl-8-butyl-9-methyl-2-oxooxonan-3-yl)carbamoyl)-4-methoxypyridin-3-yl acetate] | > 70 | > 70 | > 70 | < 70 | > 70 | > 70 | > 70 | > 70
COc1ccnc(C(=O)N[C@H]2CCC[C@H](CCCc3ccccc3)[C@@H](CCc3ccccc3)[C@H](C)OC2=O)c1OCOC(C)=O [Compound 32] | > 70 | < 70 | > 70 | < 70 | – | – | – | –
COc1ccnc(C(=O)N[C@H]2CCC[C@H](Cc3ccccc3)[C@@H](c3ccccc3)[C@H](C)OC2=O)c1OC(C)=O [Compound 53] | > 70 | > 70 | > 70 | < 70 | – | – | – | –
COc1ccnc(C(=O)N[C@H]2CCC[C@H](CCCc3ccccc3)[C@@H](CC(C)C)[C@H](C)OC2=O)c1OC(C)=O [Compound 56] | > 70 | < 70 | > 70 | < 70 | – | – | – | –
COc1ccnc(C(=O)N[C@H]2CCC[C@H](Cc3ccc(C(F)(F)F)cc3)[C@@H](Cc3ccc(OC(F)(F)F)cc3)[C@H](C)OC2=O)c1OC(C)=O [Compound 67] | < 70 | < 70 | < 70 | < 70 | – | – | – | –
